Results: patent US20220364989A1, “METHOD FOR MEASURING PHOTOTOXICITY OR PHOTOALLERGY AND REAGENT FOR USE THEREIN” (FUJIFILM Corporation, priority 2018, published 2022)
Where two headings read alike, the source gives them in different places.

Experiments:
[1] = 24 h, 0.25 mmol/L, pH 10.2
[2] = 24 h, 0.25 mmol/L, pH 8
[3] = cited from earlier work
[4] = cited from earlier work; remark: listed apart in the source
[5] = 24 h, 0.25 mmol/L
[6] = 24 h, 0.25 mmol/L, pH 8; remark: listed apart in the source
[7] = 24 h, 0.25 mmol/L, pH 10.2; remark: listed apart in the source

Difference in depletion (under light irradiation - without light irradiation) NAC (%) [6] | NAC Depletion (%) under light irradiation [6] | NAC Depletion (%) without light irradiation [6] | Difference in depletion (under light irradiation - without light irradiation) NAL (%) [7] | NAL Depletion (%) under light irradiation [7] | NAL Depletion (%) without light irradiation [7] | SMILES | NAL Depletion (%) [1] | NAC Depletion (%) [2] | In vivo phototoxicity ([3]; in vivo) | In vivo photoallergy ([4]; in vivo) | Average score (%) [5] | In vivo phototoxicity ([3]; reported in References 1 to 3) | In vivo photoallergy ([4]; reported in References 1 and 2)
– | – | – | – | – | – | CCCCC(CC)COC(=O)c1ccc(N(C)C)cc1 (stereo not drawn) [No. 19, 2-ethylhexyl p-dimethylaminobenzoate] | 1.3% | 98.1% | Negative | Positive | – | – | –
– | – | – | – | – | – | Oc1ccc(Cl)cc1Cc1cc(Cl)ccc1O [No. 21, Dichlorophen] | 14.5% | 98.5% | – | Positive | 56.5% | – | –
95.8% | 96.3% | 0.5% | 5.5% | 5.7% | 0.2% | Cc1ccc2oc(=O)ccc2c1 [compound 2, 6-Methylcoumarin] | – | – | – | – | – | Positive | Positive
3.7% | 5.5% | 1.8% | 3.3% | 6.1% | 2.8% | CCCCCCCCCCCCCCCCO [compound 49, Cetyl alcohol] | – | – | – | – | – | Negative | Negative
